Calls of active or inactive are those of the source. No cut-off for these calls is given here.
Assays:
[1] = molecular target: T1, Transcriptional enhancer factor TEF-3 (Homo sapiens, UniProt Q15561); experiment: (§1) Inhibition of N-terminal His6 tagged human TEAD4-YBD (217 to 434 residues) expressed in Escherichia coli C43 (DE3) cells assessed as reduction in autopalmitoylation at 200 nM preincubated for 2 hrs followed by palmitoyl alkyne-coenzyme A addition and measured after 30 mins immunoblot analysis relative to control
T1 sequence (Q15561 whole entry, the tested form may be a part): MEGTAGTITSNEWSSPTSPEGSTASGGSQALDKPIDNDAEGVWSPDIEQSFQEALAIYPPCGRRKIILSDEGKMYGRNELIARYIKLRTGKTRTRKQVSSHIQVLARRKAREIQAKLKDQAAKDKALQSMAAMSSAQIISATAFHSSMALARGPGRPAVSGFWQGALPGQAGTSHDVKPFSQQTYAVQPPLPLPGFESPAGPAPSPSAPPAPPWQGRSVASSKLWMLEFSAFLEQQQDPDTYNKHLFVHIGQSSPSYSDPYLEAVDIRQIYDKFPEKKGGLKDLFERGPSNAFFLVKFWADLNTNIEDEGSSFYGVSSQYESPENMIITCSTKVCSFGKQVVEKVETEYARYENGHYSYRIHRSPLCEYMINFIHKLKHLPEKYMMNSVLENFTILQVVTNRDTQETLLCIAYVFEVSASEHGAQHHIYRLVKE

[2] = molecular target: T1, Transcriptional enhancer factor TEF-3; experiment: as §1, with “800” for “200”, “mins by” for “mins”
[3] = molecular target: T1, Transcriptional enhancer factor TEF-3; experiment: Inhibition of N-terminal His6 tagged human TEAD4-YBD (217 to 434 residues) expressed in Escherichia coli C43 (DE3) cells assessed as reduction in autopalmitoylation at 50 uM preincubated for 2 hrs followed by palmitoyl alkyne-coenzyme A addition and measured after 30 mins by immunoblot analysis
[4] = molecular target: T1, Transcriptional enhancer factor TEF-3; experiment: Binding affinity to N-terminal His6 tagged human TEAD4 (217 to 434 residues) expressed in Escherichia coli C43 (DE3) cells at 200 uM by CPMG NMR spectral analysis
[5] = molecular target: T1, Transcriptional enhancer factor TEF-3; experiment: Competitive binding affinity to N-terminal His6 tagged human TEAD4 (217 to 434 residues) expressed in Escherichia coli C43 (DE3) cells at 200 uM in presence of palmitoyl CoA by CPMG NMR spectral analysis
[6] = molecular target: T1, Transcriptional enhancer factor TEF-3; experiment: Binding affinity to N-terminal His6 tagged human TEAD4 (217 to 434 residues) expressed in Escherichia coli C43 (DE3) cells at 200 uM by STD NMR spectral analysis
[7] = molecular target: T1, Transcriptional enhancer factor TEF-3; experiment: Inhibition of N-terminal His6-tagged human TEAD4 YAP binding domain (217 to 434 residues) expressed in Escherichia coli C43 (DE3) cells assessed reduction in autopalmitoylation preincubated for 2 hrs followed by palmitoyl alkyne coenzyme A addition and measured after 30 mins by immunoblot analysis
[8] = molecular target: T1, Transcriptional enhancer factor TEF-3; experiment: Binding affinity to TEAD4 (unknown origin) assessed as change in melting temperature at protein to compound ratio of 1:10 by SYPRO orange dye based thermal shift assay
[9] = molecular target: T1, Transcriptional enhancer factor TEF-3; experiment: Binding affinity to TEAD4 (unknown origin) assessed as change in melting temperature at protein to compound ratio of 1:40 by SYPRO orange dye based thermal shift assay
[10] = molecular target: T1, Transcriptional enhancer factor TEF-3; experiment: Binding affinity to TEAD4 (unknown origin) assessed as induction of protein folding by SYPRO-dye based thermal shift assay
[11] = molecular target: T1, Transcriptional enhancer factor TEF-3; experiment: Binding affinity to TEAD4 (unknown origin) assessed as change in melting temperature by fluorescence based thermal shift assay
[12] = molecular target: T1, Transcriptional enhancer factor TEF-3; experiment: Binding affinity to N-terminal His6 tagged human TEAD4-YBD (217 to 434 residues) expressed in Escherichia coli C43 (DE3) cells by SPR analysis
[13] = molecular target: T1, Transcriptional enhancer factor TEF-3; experiment: Binding affinity to N-terminal His6 tagged human TEAD4 (217 to 434 residues) expressed in Escherichia coli C43 (DE3) cells incubated for 30 mins by isothermal Titration Calorimetry

Row | Structure (SMILES) | inhibition [1] [%] | inhibition [2] [%] | further results
1 | C=CS(=O)(=O)Nc1ccc(NC(=O)c2ccc3ccccc3c2)cc1 | 15.6 | 35 | 
2 | C=CS(=O)(=O)Nc1ccc(Cc2ccc3ccccc3c2)c(O)c1 | 44.3 | 92.1 | 
3 | C=CS(=O)(=O)Nc1ccc(Cc2ccc3ccccc3c2)c(OC2CCNCC2)c1 | 1.2 | 6.5 | inhibition [3]: Active
4 | C=CS(=O)(=O)Nc1ccc(Cc2ccccc2)cc1 | 59.2 | 92.5 | 
5 | C=CS(=O)(=O)Nc1ccc(Cc2ccc3ccc(O)cc3c2)cc1 | 18.9 | 82.5 | 
6 | C=CS(=O)(=O)Nc1ccc(C(=O)Nc2ccc3c(c2)CCNC3)cc1 | 0.3 | 10.1 | 
7 | C=CS(=O)(=O)Nc1ccc(OCc2ccccc2)cc1 | 21 | 52.5 | 
8 | Cc1ccc(Oc2ccc(N)cc2)cc1 |  |  | Activity [4]: Active; Activity [5]: Active; Activity [6]: Active; IC50 [7]: 32 µM; inhibition [7]: Dose-dependent effect; ΔTm [8]: 3.1 °C; ΔTm [9]: 4.5 °C; Activity [10]: Dose-dependent effect; Activity [11]: Dose-dependent effect; Kd [12]: 41 µM
9 | C=CS(=O)(=O)Nc1ccccc1Oc1ccccc1 | -4.1 | 25.2 | 
10 | C=CS(=O)(=O)Nc1ccc2ccccc2c1 | 8.4 | 1.1 | 
11 | C=CS(=O)(=O)Nc1ccc2c(c1)CCN(C(=O)c1ccccc1)C2 | 5.4 | 25.4 | 
12 | O=C(O)c1ccccc1Nc1cccc(C(F)(F)F)c1 [FLUFENAMIC ACID] |  |  | IC50 [7]: 54 µM; inhibition [7]: Dose-dependent effect; Kd [13]: 73 µM; Kd [12]: 84 µM
13 | C=CS(=O)(=O)Oc1ccc(Oc2ccccc2)cc1 | 62.2 | 94.8 | 
